Source: patent US20130197032A1, “[…] COMPOUNDS FOR THE TREATMENT OF NEUROLOGICAL AND […] DISORDERS” (A. CARLSSON RESEARCH AB, priority 2010, published 2013)

How the values were obtained:
human 5-HT6 receptor = human 5-HT6 receptor (Homo sapiens, UniProt P50406); assay: R-SAT assay 5-HT6; assay type: cell-based
human 5-HT2A receptors [1] = molecular target: T1, human 5-HT2A receptors (Homo sapiens, UniProt P28223); assay: R-SAT functional assay at 5-HT2A; assay type: cell-based; parameters: expressed in transfected cells; host or cells: NIH-3T3
human 5-HT2A receptors [2] = molecular target: T1, human 5-HT2A receptors; assay: BRET2 beta-arrestin-2 recruitment assay at 5-HT2A; assay type: cell-based; parameters: expressed in transfected cells; host or cells: HEK-293T; conditions: mean ± SEM
Experimental: (§1) BRET-2 signals were measured using the multiplate reader Mithras 940LB (Berthold Technologies, Bad Wildbad, Germany) and were calculated as the ratio between the Renilla luciferase emission and the GFP2 emission corrected by the background emissions of non-transfected cells.

human 5-HT1B receptor = human 5-HT1B receptor (Homo sapiens, UniProt P28222); assay: R-SAT assay 5-HT1B; assay type: cell-based
5-HT2B receptors = 5-HT2B receptors (Homo sapiens, UniProt P41595); assay: R-SAT assay 5-HT2B; assay type: cell-based; parameters: expressed in transfected cells; host or cells: NIH/3T3
human 5-HT7 receptor = molecular target: T2, human 5-HT7 receptor (Homo sapiens, UniProt P34969); assay: R-SAT assay 5-HT7; assay type: cell-based; conditions: Table 3, 5-HT7; percent response of reference 5-CT
T2 construct: expressed in transfected cells; host or cells: NIH/3T3

human 5-HT1D receptor = molecular target: T3, human 5-HT1D receptor (Homo sapiens, UniProt P28221); assay: R-SAT assay 5-HT1D; assay type: cell-based; conditions: Table 3, 5-HT1D; percent response of reference 5-CT
T3 construct: expressed in transfected cells; host or cells: NIH/3T3

[3] = molecular target: T4, human 5-HT2C(vgv) receptor (Homo sapiens, UniProt P28335, I156V/I160V/N158G); assay: R-SAT assay 5-HT2C; assay type: cell-based; conditions: Table 3, 5-HT2C; percent response of reference 5-CT
T4 construct: expressed in transfected cells; host or cells: NIH/3T3
T4 sequence (P28335 33-458 I156V/N158G/I160V): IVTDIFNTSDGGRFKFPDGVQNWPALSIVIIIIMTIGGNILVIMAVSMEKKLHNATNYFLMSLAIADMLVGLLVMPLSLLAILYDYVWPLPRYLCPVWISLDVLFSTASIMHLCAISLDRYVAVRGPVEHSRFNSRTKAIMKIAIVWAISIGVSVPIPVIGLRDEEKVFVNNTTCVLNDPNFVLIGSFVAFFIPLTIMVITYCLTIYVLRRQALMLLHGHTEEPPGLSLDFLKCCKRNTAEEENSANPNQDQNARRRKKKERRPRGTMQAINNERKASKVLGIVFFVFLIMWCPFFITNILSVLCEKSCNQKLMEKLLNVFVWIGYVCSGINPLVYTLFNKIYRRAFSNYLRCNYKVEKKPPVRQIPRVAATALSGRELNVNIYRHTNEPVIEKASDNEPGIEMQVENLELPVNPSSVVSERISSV

human 5-HT2A receptors [4] = molecular target: T1, human 5-HT2A receptors; assay: Phosphatidyl inositol (PI) hydrolysis assay at 5-HT2A; assay type: cell-based; parameters: expressed in transfected cells; conditions: mean ± SEM
Experimental: After lysing the cells with 50 μl of 0.1M formic acid, 20 μl each cell lysate was mixed with 80 μl (1 mg) RNA Binding YSi-SPA beads (GE Healthcare, Chalfont St. Giles, UK) on PICO plates (PerkinElmer) and counted on a TopCount (Packard).
Each curve is representative of at least three or more independent experiments.

human D1 receptor = molecular target: T5, human D1 receptor (Homo sapiens, UniProt P21728); assay: R-SAT assay D1; assay type: cell-based; conditions: Table 3, D1; percent response of reference SKF 38393
T5 construct: expressed in transfected cells; host or cells: NIH-3T3 (inferred: R-SAT host; D1 is in neither method list of b200)

human alpha1A receptor = molecular target: T6, human alpha1A receptor (Homo sapiens, UniProt P35348); assay: R-SAT assay α1A; assay type: cell-based; conditions: Table 3, α1A; percent response of reference Phenylephrine
T6 construct: expressed in transfected cells; host or cells: NIH/3T3 cells, transient transfection, pSI vector
T6 sequence (P35348 1-466): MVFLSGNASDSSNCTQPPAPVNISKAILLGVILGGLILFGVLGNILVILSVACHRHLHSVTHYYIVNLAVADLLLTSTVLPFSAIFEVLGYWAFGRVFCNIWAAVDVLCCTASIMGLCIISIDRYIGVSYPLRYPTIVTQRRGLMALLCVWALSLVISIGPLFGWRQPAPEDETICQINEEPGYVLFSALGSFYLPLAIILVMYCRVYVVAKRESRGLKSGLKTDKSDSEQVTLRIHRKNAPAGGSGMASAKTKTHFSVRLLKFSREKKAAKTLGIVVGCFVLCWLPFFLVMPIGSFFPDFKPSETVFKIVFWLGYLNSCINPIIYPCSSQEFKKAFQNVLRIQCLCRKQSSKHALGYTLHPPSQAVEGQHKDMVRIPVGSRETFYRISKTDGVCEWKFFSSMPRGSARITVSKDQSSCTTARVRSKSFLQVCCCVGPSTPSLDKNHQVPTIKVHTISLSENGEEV

human alpha1B receptor = molecular target: T7, human alpha1B receptor (Homo sapiens, UniProt P35368); assay: R-SAT assay α1B; assay type: cell-based; conditions: Table 3, α1B; percent response of reference Phenylephrine
T7 construct: expressed in transfected cells; host or cells: NIH/3T3 cells, transient transfection, pSI vector
T7 sequence (P35368 1-520): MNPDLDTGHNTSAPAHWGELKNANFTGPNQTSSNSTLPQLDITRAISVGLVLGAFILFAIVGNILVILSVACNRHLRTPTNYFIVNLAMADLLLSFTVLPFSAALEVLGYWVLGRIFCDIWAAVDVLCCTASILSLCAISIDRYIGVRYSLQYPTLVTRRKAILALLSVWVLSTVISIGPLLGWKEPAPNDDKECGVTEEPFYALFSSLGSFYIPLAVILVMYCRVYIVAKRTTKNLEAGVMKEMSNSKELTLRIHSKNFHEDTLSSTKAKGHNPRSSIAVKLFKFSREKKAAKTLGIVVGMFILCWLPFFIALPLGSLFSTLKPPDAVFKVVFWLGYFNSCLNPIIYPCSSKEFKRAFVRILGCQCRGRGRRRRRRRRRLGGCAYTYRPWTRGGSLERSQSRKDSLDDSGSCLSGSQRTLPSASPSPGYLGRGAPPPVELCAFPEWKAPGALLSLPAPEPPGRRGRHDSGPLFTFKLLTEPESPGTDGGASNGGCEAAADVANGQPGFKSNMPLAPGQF

human M2 receptor = molecular target: T8, human M2 receptor (Homo sapiens, UniProt P08172); assay: R-SAT assay M2; assay type: cell-based; conditions: Table 3, M2; percent response of reference Carbachol
T8 construct: expressed in transfected cells; host or cells: NIH/3T3
T8 sequence (P08172 1-466): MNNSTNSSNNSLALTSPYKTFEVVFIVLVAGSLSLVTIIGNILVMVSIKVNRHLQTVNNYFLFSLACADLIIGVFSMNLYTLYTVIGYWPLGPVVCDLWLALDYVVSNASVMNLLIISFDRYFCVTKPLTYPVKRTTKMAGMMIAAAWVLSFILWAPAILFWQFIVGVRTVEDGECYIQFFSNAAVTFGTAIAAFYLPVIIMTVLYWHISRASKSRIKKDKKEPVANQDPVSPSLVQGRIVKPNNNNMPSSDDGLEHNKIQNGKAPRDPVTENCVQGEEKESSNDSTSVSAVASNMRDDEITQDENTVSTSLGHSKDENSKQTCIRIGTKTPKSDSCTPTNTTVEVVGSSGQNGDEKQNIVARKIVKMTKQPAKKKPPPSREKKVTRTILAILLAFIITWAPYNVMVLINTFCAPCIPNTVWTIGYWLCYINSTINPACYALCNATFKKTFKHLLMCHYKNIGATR

human M4 receptor = molecular target: T9, human M4 receptor (Homo sapiens, UniProt P08173); assay: R-SAT assay M4; assay type: cell-based; conditions: Table 3, M4; percent response of reference Carbachol
T9 construct: expressed in transfected cells; host or cells: NIH/3T3
T9 sequence (P08173 1-479): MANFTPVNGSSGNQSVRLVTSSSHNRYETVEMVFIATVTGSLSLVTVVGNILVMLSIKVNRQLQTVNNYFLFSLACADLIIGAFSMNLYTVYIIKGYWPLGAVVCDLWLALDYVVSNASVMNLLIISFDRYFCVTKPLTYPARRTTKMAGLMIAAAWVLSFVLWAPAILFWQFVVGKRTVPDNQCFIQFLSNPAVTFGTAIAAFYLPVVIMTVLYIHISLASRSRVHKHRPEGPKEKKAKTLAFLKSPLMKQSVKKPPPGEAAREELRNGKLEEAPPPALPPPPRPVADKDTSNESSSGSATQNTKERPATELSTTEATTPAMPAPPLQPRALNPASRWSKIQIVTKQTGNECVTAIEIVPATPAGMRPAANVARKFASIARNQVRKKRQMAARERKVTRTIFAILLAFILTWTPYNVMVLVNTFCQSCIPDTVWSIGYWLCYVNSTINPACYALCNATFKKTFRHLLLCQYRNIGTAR

human M5 receptor = molecular target: T10, human M5 receptor (Homo sapiens, UniProt P08912); assay: R-SAT assay M5; assay type: cell-based; conditions: Table 3, M5; percent response of reference Carbachol
T10 construct: expressed in transfected cells; host or cells: NIH/3T3 cells, transient transfection, pSI vector

D2 receptors [5] = molecular target: T11, D2 receptors (Homo sapiens, UniProt P14416); assay: R-SAT functional assay at D2; assay type: cell-based; parameters: expressed in transfected cells; host or cells: NIH-3T3
human D3 receptor = molecular target: T12, human D3 receptor (Homo sapiens, UniProt P35462); assay: R-SAT assay D3; assay type: cell-based; conditions: Table 3, D3; percent response of reference Pergolide
T12 construct: expressed in transfected cells

D2 receptors [6] = molecular target: T11, D2 receptors; assay: BRET2 beta-arrestin-2 recruitment assay at D2; assay type: cell-based; parameters: expressed in transfected cells; host or cells: HEK-293T
Experimental: as §1
Each curve is representative of two to three independent experiments.

D2 receptors [7] = molecular target: T11, D2 receptors; assay: GTPγS binding assay at D2; assay type: biochemical; parameters: expressed in transfected cells; conditions: percent response of reference ligand dopamine; mean ± SEM
Experimental: Cells were not centrifuged following cell scraping, but were collected directly into the ice-cold nitrogen cavitation chamber.
50 μl/well Wheat-Germ Agglutinin SPA beads (Perkin Elmer, Shelton, Conn.) were added to the plates and the plates incubated for 1 hour. The plates were then centrifuged at 1,000×g for 10 minutes and read on a Top Count NXT (Perkin Elmer, Shelton, Conn.).
To relate the results observed in R-SAT™ to a more conventional assay system, these ligands were also tested for the ability to induce GTPγS binding through D2 receptors.

[8] = molecular target: human D4 (variant 4.2) receptor (Homo sapiens, UniProt P21917, DEL265-296); assay type: cell-based
human alpha2C receptor = molecular target: T13, human alpha2C receptor (Homo sapiens, UniProt P18825); assay: R-SAT assay α2C; assay type: cell-based; conditions: Table 3, α2C; percent response of reference UK 14,306
T13 construct: expressed in transfected cells; host or cells: NIH/3T3 cells, transient transfection, pSI vector
T13 sequence (P18825 1-462): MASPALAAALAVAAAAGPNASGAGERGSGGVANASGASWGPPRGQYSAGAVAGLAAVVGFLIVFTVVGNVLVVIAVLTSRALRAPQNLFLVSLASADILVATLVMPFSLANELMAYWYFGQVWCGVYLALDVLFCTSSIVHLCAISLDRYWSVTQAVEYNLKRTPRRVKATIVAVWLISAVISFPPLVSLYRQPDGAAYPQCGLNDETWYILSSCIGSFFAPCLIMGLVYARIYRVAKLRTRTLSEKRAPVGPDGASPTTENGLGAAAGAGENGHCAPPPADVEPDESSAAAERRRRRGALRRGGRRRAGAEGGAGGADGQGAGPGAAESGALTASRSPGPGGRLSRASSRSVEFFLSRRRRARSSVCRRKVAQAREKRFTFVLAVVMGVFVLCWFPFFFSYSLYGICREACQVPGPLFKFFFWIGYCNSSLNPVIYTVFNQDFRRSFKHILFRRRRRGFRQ

[9] = percent response of reference ligand 5-HT

T11 sequence (P14416 1-414 isoform P14416-2): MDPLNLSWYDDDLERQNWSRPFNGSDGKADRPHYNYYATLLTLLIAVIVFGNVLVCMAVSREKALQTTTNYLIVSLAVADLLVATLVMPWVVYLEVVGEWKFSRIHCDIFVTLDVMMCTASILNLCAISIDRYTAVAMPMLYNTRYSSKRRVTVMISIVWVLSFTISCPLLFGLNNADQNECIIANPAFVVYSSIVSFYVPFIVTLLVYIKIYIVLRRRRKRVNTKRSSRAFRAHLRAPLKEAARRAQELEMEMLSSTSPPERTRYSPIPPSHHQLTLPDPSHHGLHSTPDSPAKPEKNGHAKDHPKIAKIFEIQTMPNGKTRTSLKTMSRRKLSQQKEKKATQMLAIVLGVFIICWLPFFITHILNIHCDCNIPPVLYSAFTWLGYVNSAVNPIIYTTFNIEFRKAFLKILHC
T1 sequence (P28223 whole entry): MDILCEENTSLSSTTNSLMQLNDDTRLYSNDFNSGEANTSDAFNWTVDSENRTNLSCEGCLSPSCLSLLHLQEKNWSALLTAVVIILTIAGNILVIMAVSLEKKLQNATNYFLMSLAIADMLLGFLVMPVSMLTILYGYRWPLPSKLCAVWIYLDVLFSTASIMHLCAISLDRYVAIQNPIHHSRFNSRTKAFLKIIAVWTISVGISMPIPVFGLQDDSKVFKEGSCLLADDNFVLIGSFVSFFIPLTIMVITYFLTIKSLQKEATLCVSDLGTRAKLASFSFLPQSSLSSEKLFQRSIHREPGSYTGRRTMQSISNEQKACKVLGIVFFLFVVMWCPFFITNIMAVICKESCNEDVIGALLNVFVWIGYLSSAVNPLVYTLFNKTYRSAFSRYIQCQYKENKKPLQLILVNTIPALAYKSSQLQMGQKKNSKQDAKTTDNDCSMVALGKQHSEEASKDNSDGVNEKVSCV
Sequence of human 5-HT1B receptor (P28222 whole entry): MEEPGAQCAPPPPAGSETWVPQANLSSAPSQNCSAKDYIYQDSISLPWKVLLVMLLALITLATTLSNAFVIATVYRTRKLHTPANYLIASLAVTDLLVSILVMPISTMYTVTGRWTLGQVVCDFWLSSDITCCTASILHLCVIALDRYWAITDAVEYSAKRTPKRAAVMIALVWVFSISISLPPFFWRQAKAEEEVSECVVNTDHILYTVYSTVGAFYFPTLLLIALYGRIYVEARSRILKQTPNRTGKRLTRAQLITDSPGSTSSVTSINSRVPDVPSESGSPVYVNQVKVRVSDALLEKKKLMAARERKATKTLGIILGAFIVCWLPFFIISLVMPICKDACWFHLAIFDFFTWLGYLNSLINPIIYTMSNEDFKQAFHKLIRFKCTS
Sequence of 5-HT2B receptors (P41595 whole entry): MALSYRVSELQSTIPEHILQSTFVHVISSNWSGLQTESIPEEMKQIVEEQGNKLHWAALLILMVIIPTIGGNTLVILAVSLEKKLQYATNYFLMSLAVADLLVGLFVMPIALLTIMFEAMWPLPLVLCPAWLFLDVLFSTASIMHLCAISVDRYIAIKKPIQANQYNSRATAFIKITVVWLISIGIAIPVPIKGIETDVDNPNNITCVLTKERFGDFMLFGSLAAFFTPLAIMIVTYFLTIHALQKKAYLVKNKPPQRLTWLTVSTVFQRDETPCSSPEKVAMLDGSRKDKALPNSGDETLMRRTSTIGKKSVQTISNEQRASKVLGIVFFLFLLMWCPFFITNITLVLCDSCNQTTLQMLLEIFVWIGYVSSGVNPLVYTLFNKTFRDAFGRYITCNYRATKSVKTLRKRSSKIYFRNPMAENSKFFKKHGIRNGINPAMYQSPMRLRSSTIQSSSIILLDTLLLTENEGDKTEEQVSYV
Sequence of human 5-HT6 receptor (P50406 whole entry): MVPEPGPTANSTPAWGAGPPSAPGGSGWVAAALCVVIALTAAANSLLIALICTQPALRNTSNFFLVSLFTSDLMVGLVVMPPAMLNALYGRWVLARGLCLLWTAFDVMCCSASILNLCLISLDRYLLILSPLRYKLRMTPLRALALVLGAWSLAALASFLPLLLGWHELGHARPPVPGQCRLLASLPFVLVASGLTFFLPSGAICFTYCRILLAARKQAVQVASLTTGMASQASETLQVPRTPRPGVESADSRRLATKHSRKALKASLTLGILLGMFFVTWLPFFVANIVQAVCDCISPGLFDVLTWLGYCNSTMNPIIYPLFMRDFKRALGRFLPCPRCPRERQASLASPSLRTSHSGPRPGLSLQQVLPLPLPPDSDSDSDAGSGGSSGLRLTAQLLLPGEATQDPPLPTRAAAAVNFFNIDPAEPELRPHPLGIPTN
T10 sequence (P08912 whole entry): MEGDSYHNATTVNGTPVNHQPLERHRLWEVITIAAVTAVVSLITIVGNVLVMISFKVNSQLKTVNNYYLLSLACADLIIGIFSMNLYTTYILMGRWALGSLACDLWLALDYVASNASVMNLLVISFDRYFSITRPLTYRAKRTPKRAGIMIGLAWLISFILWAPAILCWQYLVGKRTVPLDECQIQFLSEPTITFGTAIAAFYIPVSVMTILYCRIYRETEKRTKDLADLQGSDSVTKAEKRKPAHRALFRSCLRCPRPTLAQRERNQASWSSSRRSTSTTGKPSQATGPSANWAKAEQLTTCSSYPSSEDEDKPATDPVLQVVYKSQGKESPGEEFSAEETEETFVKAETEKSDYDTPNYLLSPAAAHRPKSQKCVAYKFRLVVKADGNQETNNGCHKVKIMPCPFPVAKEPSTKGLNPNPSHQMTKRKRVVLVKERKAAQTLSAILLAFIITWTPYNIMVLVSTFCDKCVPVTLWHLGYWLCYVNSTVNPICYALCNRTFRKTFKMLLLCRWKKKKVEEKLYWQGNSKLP
T3 sequence (P28221 whole entry): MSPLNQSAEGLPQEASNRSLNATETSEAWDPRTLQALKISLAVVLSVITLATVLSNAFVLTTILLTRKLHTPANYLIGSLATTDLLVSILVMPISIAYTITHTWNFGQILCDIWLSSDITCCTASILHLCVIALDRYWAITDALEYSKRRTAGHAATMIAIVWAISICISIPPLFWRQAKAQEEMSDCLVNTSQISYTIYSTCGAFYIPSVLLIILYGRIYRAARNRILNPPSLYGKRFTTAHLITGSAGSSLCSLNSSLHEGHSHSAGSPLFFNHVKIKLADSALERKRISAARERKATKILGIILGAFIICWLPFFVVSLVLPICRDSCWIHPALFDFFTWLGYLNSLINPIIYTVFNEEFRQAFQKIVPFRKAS
T5 sequence (P21728 whole entry): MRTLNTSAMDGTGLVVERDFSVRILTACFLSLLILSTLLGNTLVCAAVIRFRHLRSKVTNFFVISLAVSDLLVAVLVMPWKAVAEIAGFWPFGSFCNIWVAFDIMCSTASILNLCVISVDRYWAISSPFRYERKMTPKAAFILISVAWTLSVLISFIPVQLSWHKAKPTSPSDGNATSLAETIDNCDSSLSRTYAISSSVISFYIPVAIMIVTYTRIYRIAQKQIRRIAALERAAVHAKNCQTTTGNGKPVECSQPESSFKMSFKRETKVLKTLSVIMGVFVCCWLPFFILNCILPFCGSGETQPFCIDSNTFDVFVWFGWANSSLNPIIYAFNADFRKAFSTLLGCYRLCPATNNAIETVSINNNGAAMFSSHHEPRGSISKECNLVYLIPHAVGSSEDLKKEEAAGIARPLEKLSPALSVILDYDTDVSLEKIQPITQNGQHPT
Sequence of human D4 (variant 4.2) receptor (P21917 with tags, fused parts or gaps DEL265-296): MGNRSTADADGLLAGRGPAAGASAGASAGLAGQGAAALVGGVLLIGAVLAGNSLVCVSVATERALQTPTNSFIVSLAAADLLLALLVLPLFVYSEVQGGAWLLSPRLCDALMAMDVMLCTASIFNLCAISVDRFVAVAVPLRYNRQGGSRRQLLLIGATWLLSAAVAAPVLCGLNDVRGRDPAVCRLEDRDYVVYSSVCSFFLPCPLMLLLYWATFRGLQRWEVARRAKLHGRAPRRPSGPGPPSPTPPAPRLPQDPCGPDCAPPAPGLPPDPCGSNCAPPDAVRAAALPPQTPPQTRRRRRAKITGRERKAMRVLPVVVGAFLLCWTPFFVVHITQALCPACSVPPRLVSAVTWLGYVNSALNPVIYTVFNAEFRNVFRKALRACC
T2 sequence (P34969 whole entry): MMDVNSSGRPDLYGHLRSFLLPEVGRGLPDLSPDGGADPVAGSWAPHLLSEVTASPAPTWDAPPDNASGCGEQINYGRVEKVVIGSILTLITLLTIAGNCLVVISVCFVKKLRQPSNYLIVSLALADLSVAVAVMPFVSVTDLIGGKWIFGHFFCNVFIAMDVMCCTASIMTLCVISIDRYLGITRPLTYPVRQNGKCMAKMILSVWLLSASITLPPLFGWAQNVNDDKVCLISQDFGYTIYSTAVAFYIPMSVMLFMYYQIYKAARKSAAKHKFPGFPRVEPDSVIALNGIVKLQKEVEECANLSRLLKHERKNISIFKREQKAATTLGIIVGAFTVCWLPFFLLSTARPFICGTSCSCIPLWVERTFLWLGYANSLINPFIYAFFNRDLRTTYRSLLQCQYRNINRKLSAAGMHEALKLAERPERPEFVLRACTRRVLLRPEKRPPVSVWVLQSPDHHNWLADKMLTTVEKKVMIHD
T12 sequence (P35462 whole entry): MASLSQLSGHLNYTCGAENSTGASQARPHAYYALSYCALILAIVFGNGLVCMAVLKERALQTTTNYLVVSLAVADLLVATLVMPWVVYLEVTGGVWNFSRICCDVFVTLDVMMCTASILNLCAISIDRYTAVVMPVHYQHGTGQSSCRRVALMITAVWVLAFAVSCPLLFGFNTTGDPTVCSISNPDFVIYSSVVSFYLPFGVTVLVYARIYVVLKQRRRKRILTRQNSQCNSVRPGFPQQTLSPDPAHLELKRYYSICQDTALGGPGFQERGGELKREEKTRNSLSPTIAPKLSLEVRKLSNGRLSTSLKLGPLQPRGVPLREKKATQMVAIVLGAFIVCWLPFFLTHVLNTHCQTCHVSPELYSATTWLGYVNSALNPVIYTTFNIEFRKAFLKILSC

NCCc1c[nH]c2ccc(C(N)=O)cc12 [5-CT, 5-carboxamidotryptamine, reference compound]
EC50 (human 5-HT6 receptor): 0.251 µM | Eff (%) (human 5-HT6 receptor; Table 3, 5-HT6, percent response of reference 5-CT): 100% | EC50 (human 5-HT2A receptors [1]; Table 1, negative logarithm of EC50 in molar (M), NIH3T3 cells, mean ± SEM, read-out: R-SAT pEC50 (converted)): 6.31e-08 M | R-SAT Eff(%) (human 5-HT2A receptors [1]; Table 1, percent response of reference ligand 5-CT, mean ± SEM): 100 ± 0% | EC50 (human 5-HT2A receptors [1]; Table 3, 5-HT2A, negative logarithm of EC50 in molar, read-out: pEC50 (converted)): 7.94e-08 M | Eff (%) (human 5-HT2A receptors [1]; Table 3, 5-HT2A, percent response of reference 5-CT): 100% | EC50 (human 5-HT2A receptors [2]; negative logarithm of EC50 in molar (M), HEK 293T cells, read-out: BRET2 pEC50 (converted)): 2e-07 M | BRET2 Eff % (human 5-HT2A receptors [2]; [9]): 98 ± 3% | EC50 (human 5-HT1B receptor): 0.00631 µM | Eff (%) (human 5-HT1B receptor; Table 3, 5-HT1B, percent response of reference 5-CT): 100% | EC50 (5-HT2B receptors): 0.0501 µM | Eff (%) (5-HT2B receptors; Table 3, 5-HT2B, percent response of reference 5-CT): 100% | Eff (%) (human 5-HT7 receptor): 100% | Eff (%) (human 5-HT1D receptor): 100% | Eff (%) [3]: 100% | EC50 (human 5-HT2A receptors [4]; negative logarithm of EC50 in molar (M), HEK 293T cells, read-out: PI Hydrolysis pEC50 (converted)): 2.51e-07 M | PI Hydrolysis Eff (%) (human 5-HT2A receptors [4]; [9]): 92 ± 4%

Oc1cc2c(cc1O)C(c1ccccc1)CNCC2 (stereo not shown) [SKF 38393, reference compound]
Eff (%) (human D1 receptor): 100%

CNC[C@H](O)c1cccc(O)c1 [Phenylephrine, reference compound]
Eff (%) (human alpha1A receptor): 100% | Eff (%) (human alpha1B receptor): 100%

C[N+](C)(C)CCOC(N)=O [Carbachol, reference compound]
Eff (%) (human M2 receptor): 100% | Eff (%) (human M4 receptor): 100% | Eff (%) (human M5 receptor): 100%

CCCN1C[C@H](CSC)C[C@@H]2c3cccc4[nH]cc(c34)C[C@H]21 [Pergolide]
R-SAT Eff(%) (D2 receptors [5]; Table 2, percent response of reference ligand pergolide, mean ± SEM): 100 ± 0% | Eff (%) (D2 receptors [5]; Table 3, D2, percent response of reference Pergolide): 100% | Eff (%) (human D3 receptor): 100% | agonist profile in BRET2 assays at D2 receptors (D2 receptors [6]): partial agonists | BRET2 Eff % (D2 receptors [6]; percent response of reference ligand dopamine, mean ± SEM): 64 ± 3% | GTPγS Eff % (D2 receptors [7]): 94 ± 7% | Eff (%) [8]: 100%

Brc1c(NC2=NCCN2)ccc2nccnc12 [UK 14,306, reference compound]
Eff (%) (human alpha2C receptor): 100%
